This data set is described as follows: physchem.

From patent US7951399B2, “Process for activation of drugs in a vibrational mill” (Eurand Pharmaceuticals Ltd., priority 2001, dated 2011) come the findings set out here.

In brackets after ≈: the same amount, converted by molar mass.

`CC(C)Cc1ccc(C(C)C(=O)O)cc1` (stereo not shown) [Ibuprofen]: the solubility (commonly how much of the substance goes into solution per volume) stood at 73 µg/mL (≈ 354 µM).
